# Source: paper PMC10823475, “Design, Synthesis, and Evaluation of Inhibitors of Hedgehog Acyltransferase” (Journal of Medicinal Chemistry, 2024)
# Several values for one entry are separate records, joined by “and”; a condition that tells them apart may be missing. Identical values can stand only once. Like-named read-outs stand apart in the source and are kept apart here.
# How the values were obtained:
# purified HHAT = biological target: T1, purified HHAT (Homo sapiens, UniProt Q5VTY9); assay: Acyl-cLIP assay, inhibition of purified HHAT; type: biochemical; conditions: for LLEAcyl-cLIP: from Acyl-cLIP IC50 and clogDpH7.4; for IC50: purified HHAT, read-out: Acyl-cLIP Assay IC50 (CI95); for fold more potent than analogues 19, 32, and 34: meta-methyl on 4-position aromatic ring
# T1 construct: made in house
# Summary of the method: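 Percent inhibition was first taken at 50 μM and 25 μM, then IC50 derived from variable-slope dose-response curves of initial rate constants, normalized against DMSO and HHAT-free samples. Reaction: purified DDM-solubilized HHAT transfers palmitoyl from palmitoyl-CoA onto a FAM-SHH peptide (MES, pH 6.5), monitored 30 min by fluorescence anisotropy.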
# HEK293a SHH+ cells = assay: MTS assay, cytotoxicity (72 h); type: cell-based; conditions: for decrease in cell viability / cell survival: 12.5 μM
# Summary of the method: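 Cells plated at 5000/well, cultured 24 h, then exposed to analogues (0.14–100 μM final) in DMEM/10% FBS for 72 h. MTS/PMS added for 3 h at 37 °C and absorbance read at 490 nm; data normalised to DMSO vehicle and puromycin (2 μg/mL) wells, curves fitted with a variable-slope sigmoidal model.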
# [1] = system: HH signaling (HEK293a SHH+ conditioned media on SHH-Light2 cells); assay: Light2 dual-luciferase cell-based HH signaling assay (Firefly)
# Description: Subsequently, the effect of analogues on HH signaling was investigated using a cellular luciferase reporter assay. Light2 cells derived from NIH3T3 cells constitutively express Renilla luciferase as an internal control for cell density alongside Firefly luciferase under the control of a HH-responsive Gli promoter.[43] HEK293a SHH^+ cells were incubated with varying inhibitor concentrations and SHH-containing conditioned media transferred to the NIH3T3-Light2 cells to mimic paracrine signaling[30],[35] (Figure 6A).
# The Light2 cell-based signaling assay has been described previously.[35] Briefly, HEK293a SHH^+ cells were plated at 120,000 cells/well of a 12-well plate in a volume of 1 mL/well and cultured as described above. After 24 h, cells were washed with PBS, followed by addition of 1 mL of media containing 0.2% DMSO or varying inhibitor concentrations in DMSO (0.041–30 μM final). Additionally, SHH-Light2 cells were plated at 20,000 cells/well of a 96-well plate in 50 μL media. After another 24 h, 300 μL of the conditioned media were collected from each well of the treated HEK293a SHH^+ cells, centrifuged at 1000g for 10 min to remove detached cells and split into three wells of the SHH-Light2 cells (100 μL/well; 150 μL final volume in each well). The treated Light2 cells were cultured for another 48 h and subsequently washed with PBS. Firefly and Renilla luciferase activity was measured using the Dual-Luciferase reporter system (Promega Corporation, USA). Then 20 μL of 1× passive lysis buffer were added to each well. After 30 min at RT, 5 μL of each lysate were transferred to a white opaque 96-well plate. Then 20 μL/well of luciferase assay reagent II was added and the luminescence immediately recorded using a SpectraMax i3x plate reader (Molecular Devices LLC). Subsequently, 20 μL/well of 1× Stop&Glo substrate in Stop&Glo buffer was added and the luminescence immediately recorded for a second time. Data was evaluated using a “sigmoidal dose response (variable slope)” model in GraphPad Prism 5 (GraphPad Software, Inc.). The luminescence signal of the Firefly luciferase was normalized to the DMSO vehicle (100%) and the unconditioned media (0%) controls.
# [2] = Firefly luciferase, Light2 cells, read-out: HH signaling inhibition EC50 (CI95)
# T1 sequence (Q5VTY9 whole entry): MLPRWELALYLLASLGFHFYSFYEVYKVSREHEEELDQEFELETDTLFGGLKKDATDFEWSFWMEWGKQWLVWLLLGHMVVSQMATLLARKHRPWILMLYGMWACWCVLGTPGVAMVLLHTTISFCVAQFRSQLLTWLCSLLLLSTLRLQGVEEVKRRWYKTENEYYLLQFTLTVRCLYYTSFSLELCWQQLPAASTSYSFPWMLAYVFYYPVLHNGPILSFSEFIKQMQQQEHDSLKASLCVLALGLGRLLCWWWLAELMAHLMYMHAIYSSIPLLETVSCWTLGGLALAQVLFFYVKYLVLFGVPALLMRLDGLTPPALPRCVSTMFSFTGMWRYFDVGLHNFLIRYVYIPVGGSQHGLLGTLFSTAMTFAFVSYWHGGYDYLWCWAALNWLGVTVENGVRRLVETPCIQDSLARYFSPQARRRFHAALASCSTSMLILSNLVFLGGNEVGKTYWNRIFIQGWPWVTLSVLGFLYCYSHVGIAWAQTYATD
Structure (SMILES),inhibition at 25 µM (purified HHAT),inhibition at 50 µM (purified HHAT),LLEAcyl-cLIP (purified HHAT),IC50 (purified HHAT),"fold more potent than analogues 19, 32, and 34 (purified HHAT)",HHAT inhibition in the acyl-cLIP assay (purified HHAT),"fold increase in potency compared to racemate (purified HHAT; enantiomer vs racemate (29 vs 21, 30 vs 24, 43 vs 39))",decrease in cell viability / cell survival (HEK293a SHH+ cells),"EC50 [1, 2]",toxicity to HEK293a SHH+ cells (HEK293a SHH+ cells),effect on HH signaling [1],"CC50 (HEK293a SHH+ cells; 72 h, read-out: MTS Assay (HEK293a SHH+) CC50 (CI95))","EC50 ([1]; Light2 luciferase reporter, read-out: EC50 against HH signaling)"
CC(=O)N1CCc2sccc2C1c1ccccc1 (centres unmarked) [Compound 5],66 ± 7%,85 ± 5%,2.39,5300 nM and 5340 nM,–,–,–,< 30%,4560 nM,–,–,–,–
Cc1cccc(C2c3ccsc3CCN2C(=O)CNCC(C)C)n1 (centres unmarked) [Compound 24],91 ± 4%,95 ± 4%,4.90,1330 nM,–,–,–,–,1180 nM,–,–,–,–
Cc1cccc([C@@H]2c3ccsc3CCN2C(=O)CNCC(C)C)n1 [Compound 28],13 ± 4%,18 ± 2%,–,> 100000 nM,–,no inhibitory activity,–,–,> 30000 nM,–,inactive,–,–
Cc1cccc([C@H]2c3ccsc3CCN2C(=O)CNCC(C)C)n1 [Compound 30],92 ± 4%,95 ± 4%,5.14,< 10000 nM,–,–,2 fold,< 30%,100 nM,–,–,> 100000 nM,99 nM

# Further lines, with some results ahead:
inhibition at 25 µM (purified HHAT),inhibition at 50 µM (purified HHAT),LLEAcyl-cLIP (purified HHAT),IC50 (purified HHAT),"fold more potent than analogues 19, 32, and 34 (purified HHAT)",HHAT inhibition in the acyl-cLIP assay (purified HHAT),"fold increase in potency compared to racemate (purified HHAT; enantiomer vs racemate (29 vs 21, 30 vs 24, 43 vs 39))",Structure (SMILES),decrease in cell viability / cell survival (HEK293a SHH+ cells),"EC50 [1, 2]",toxicity to HEK293a SHH+ cells (HEK293a SHH+ cells),effect on HH signaling [1],"CC50 (HEK293a SHH+ cells; 72 h, read-out: MTS Assay (HEK293a SHH+) CC50 (CI95))","EC50 ([1]; Light2 luciferase reporter, read-out: EC50 against HH signaling)"
73 ± 9%,87 ± 2%,2.48,5760 nM,–,–,–,C=CCNCC(=O)N1CCc2sccc2C1COc1ccc(Cl)cc1 (centres unmarked) [Compound 2],44%,–,–,–,–,–
96 ± 1%,103 ± 1%,4.20,2580 nM,2–5 fold,–,–,CCC(C)CNCC(=O)N1CCc2sccc2C1c1cccc(C)n1 (centres unmarked) [Compound 22],–,580 nM,–,–,–,–
93 ± 7%,88 ± 2%,2.91,2130 nM,2–5 fold,–,–,CCC(C)CNCC(=O)N1CCc2sccc2C1c1cccc(C)c1 (centres unmarked) [Compound 17],–,1170 nM,toxic,–,–,–
